Source: US20070264355A1, “BINARY COMPOSITIONS AND METHODS FOR STERILIZATION” (Binary, LLC, priority 2005, published 2007)
Entries after “also recorded” stand apart in the source; their conditions may differ.

Legend:
Assay type in all cases: cell-based
[1] = tested on: Staphylococcus aureus (ATCC 6538); test: Microbicidal activity against Staphylococcus aureus (suspension test, surviving CFU)
Experimental: Bacterial suspensions, specifically Staphylococcus aureus (ATCC 6538) in this example, were prepared by the shake flask method to achieve late log to early stationary phase growth. Bacteria were grown 24 hours in trypticase soy broth (TSB) at 35° C. The cultures were centrifuged at 4,000 rpm for 10 minutes and the supernatants removed. The pellet was collected and washed twice with sterile 0.9% normal saline. The washed microorganisms were suspended and diluted with normal saline to a 3 McFarland standard, i.e., approximately 10^9 bacteria colony forming units (CFU) per ml. Actual colony counts are confirmed by serial dilutions (10^−1 to 10^−5 or 10^−6) plated on trypticase soy agar (TSA) and incubated overnight at 35° C. One hundred microliters of organisms from a stock of 10^7 CFU/ml were used to obtain an approximate final working target inoculum of 10^6 CFU. The microbicidal test is conducted in a vial containing 1.4 ml of final reaction mixture after neutralization.
(§1) Each solution was used alone for the individual controls. Organism suspensions were used to achieve a final target concentration of 2-3×10^6 CFU per ml. For the binary system treatments, sodium hypochlorite solution and hydrogen peroxide solution, non-acidified or acidified, were sequentially added to the microorganisms. Acidified hydrogen peroxide solution was obtained by the addition of 1.0% v/v of 0.001 N hydrochloride solution. After each addition, the resulting mixture was allowed to remain in contact with the organisms for a set amount of time at room temperature (about 22° C.), as listed in the Tables 1 and 2. At the end of the treatment time, the mixtures were neutralized with 200 to 500 microliters of thiosulfate solution (2.4%) to quench the activity of sodium hypochlorite and then treated with 100 to 200 microliters of a 1% catalase solution, containing a minimum of 100 units/ul, to quench the hydrogen peroxide activity. If needed, an appropriate volume of sterile saline was added to bring the final volume of reaction mixture to 1.4 ml after neutralization. Serial dilution plate counts were performed from the contents of each vial in sterile saline and inoculated onto TSA for quantitative culture. Plates were then incubated at 37° C. and counts taken at 24 hours.
After an additional 30 minutes, the binary system mixture was then neutralized using 2.4% thiosulfate followed by 1% catalase as described in the Methods Section.

[2] = tested on: Bacillus subtilis (ATCC 19659) spores; test: Microbicidal activity against Bacillus subtilis spores (suspension test, surviving CFU)
Source text: as §1
Suspensions of Bacillus subtilis (ATCC 19659) containing 100% spores, as confirmed by microscopy, were obtained by washing the spun-down cells with 50% ethanol to eliminate the vegetative form. Starting inoculum of approximately 1-3×10^6 CFU was used as in Example 1.
[…] The binary system was neutralized 30 minutes after addition of hydrogen peroxide using 2.4% thiosulfate and 1% catalase as described in Example 1.

[3] = tested on: Escherichia coli (ATCC 25922); test: Microbicidal activity against Escherichia coli (suspension test, surviving CFU); conditions: H2O2 88 mM 15 min; inoculum 1630000 CFU
Source text: as §1, with “hours. […]” for “hours.”

[4] = tested on: Bacillus subtilis spores; test: Microbicidal activity of commonly used antiseptics against Bacillus subtilis spores
Experimental: (§2) The performance of commonly used antiseptics was tested against Bacillus subtilis and Staphylococcus aureus, following the general procedure of Example 1, to assess the improvement provided by the binary system over these compounds.
After 60 minutes of exposure to the organisms, the individual antiseptics, indicated in Table 15 and Table 16, were neutralized using the corresponding neutralizing solutions prepared as listed below in Materials. Chlorhexidine and IPA were neutralized with 500 microliters of a solution containing 3% Saponin, 3% Tween-80, 0.3% lecithin, and 0.1% histidine. Povidone Iodine was neutralized with 500 microliters of thiosulfate solution (2.4%).

[5] = tested on: Staphylococcus aureus; test: Microbicidal activity of commonly used antiseptics against Staphylococcus aureus; conditions: inoculum 1475000 CFU
Experimental: as §2
[…] Chlorhexidine and IPA were neutralized with 500 microliters of a solution containing 3% Saponin, 3% Tween-80, 0.3% lecithin, and 0.1% histidine. Povidone Iodine was neutralized with 500 microliters of thiosulfate solution (2.4%).

[6] = H2O2 0.35 mM 30 min, inoculum 2530000 CFU
[7] = H2O2 88 mM 5 min, inoculum 1600000 CFU
[8] = H2O2 88 mM 15 min, inoculum 1600000 CFU
[9] = H2O2 88 mM 30 min, inoculum 1600000 CFU
[10] = H2O2 294 mM 5 min, inoculum 1600000 CFU
[11] = H2O2 294 mM 15 min, inoculum 1600000 CFU
[12] = H2O2 294 mM 30 min, inoculum 1600000 CFU
[13] = H2O2 882 mM 5 min, inoculum 1600000 CFU
[14] = H2O2 882 mM 15 min, inoculum 1600000 CFU
[15] = H2O2 882 mM 30 min, inoculum 1600000 CFU
[16] = H2O2 2940 mM 5 min, inoculum 1600000 CFU
[17] = H2O2 2940 mM 15 min, inoculum 1600000 CFU
[18] = H2O2 2940 mM 30 min, inoculum 1600000 CFU
[19] = H2O2 8821 mM 5 min, inoculum 1600000 CFU
[20] = H2O2 8821 mM 15 min, inoculum 1600000 CFU
[21] = H2O2 8821 mM 30 min, inoculum 1600000 CFU
[22] = H2O2 35.25 mM 30 min, inoculum 1120000 CFU
[23] = H2O2 88 mM 60 min, inoculum 1865000 CFU
[24] = H2O2 294 mM 60 min, inoculum 1865000 CFU
[25] = H2O2 882 mM 60 min, inoculum 1865000 CFU
[26] = H2O2 2940 mM 60 min, inoculum 1865000 CFU
[27] = H2O2 8821 mM 60 min, inoculum 1865000 CFU
[28] = H2O2/H+ 0.35 mM 30 min, inoculum 2530000 CFU
[29] = H2O2/H+ 35.25 mM 30 min, inoculum 1120000 CFU
[30] = IPA 0.07% 60 min, inoculum 1865000 CFU
[31] = IPA 0.70% 60 min, inoculum 1865000 CFU
[32] = IPA 7% 60 min, inoculum 1865000 CFU
[33] = IPA 70% 60 min, inoculum 1865000 CFU
[34] = PVI 10.00% 60 min, inoculum 1120000 CFU

Molecule: OO [H2O2, hydrogen peroxide]
- Log 10 (CFU + 1) Survivors [1, 6]: 6.2
- Log Reduction [1, 6]: 0.2
- Total Viability (CFU) [1, 6]: 1764000 CFU
- Log 10 (CFU + 1) Survivors [1, 7]: 6.2
- Log Reduction [1, 7]: 0.0
- Total Viability (CFU) [1, 7]: 1694000 CFU
- Log 10 (CFU + 1) Survivors [1, 8]: 6.3
- Log Reduction [1, 8]: −0.1
- Total Viability (CFU) [1, 8]: 2044000 CFU
- Log 10 (CFU + 1) Survivors [1, 9]: 6.3
- Log Reduction [1, 9]: −0.1
- Total Viability (CFU) [1, 9]: 1792000 CFU
- Log 10 (CFU + 1) Survivors [1, 10]: 6.1
- Log Reduction [1, 10]: 0.1
- Total Viability (CFU) [1, 10]: 1288000 CFU
- Log 10 (CFU + 1) Survivors [1, 11]: 6.1
- Log Reduction [1, 11]: 0.1
- Total Viability (CFU) [1, 11]: 1190000 CFU
- Log 10 (CFU + 1) Survivors [1, 12]: 1.3
- Log Reduction [1, 12]: 4.9
- Total Viability (CFU) [1, 12]: 21 CFU
- Log 10 (CFU + 1) Survivors [1, 13]: 4.1
- Log Reduction [1, 13]: 2.1
- Total Viability (CFU) [1, 13]: 12040 CFU
- Log 10 (CFU + 1) Survivors [1, 14]: 0.0
- Log Reduction [1, 14]: 6.2
- Total Viability (CFU) [1, 14]: 0 CFU
- Log 10 (CFU + 1) Survivors [1, 15]: 0.0
- Log Reduction [1, 15]: 6.2
- Total Viability (CFU) [1, 15]: 0 CFU
- Log 10 (CFU + 1) Survivors [1, 16]: 0.0
- Log Reduction [1, 16]: 6.2
- Total Viability (CFU) [1, 16]: 0 CFU
- Log 10 (CFU + 1) Survivors [1, 17]: 0.0
- Log Reduction [1, 17]: 6.2
- Total Viability (CFU) [1, 17]: 0 CFU
- Log 10 (CFU + 1) Survivors [1, 18]: 0.0
- Log Reduction [1, 18]: 6.2
- Total Viability (CFU) [1, 18]: 0 CFU
- Log 10 (CFU + 1) Survivors [1, 19]: 0.0
- Log Reduction [1, 19]: 6.2
- Total Viability (CFU) [1, 19]: 0 CFU
- Log 10 (CFU + 1) Survivors [1, 20]: 0.0
- Log Reduction [1, 20]: 6.2
- Total Viability (CFU) [1, 20]: 0 CFU
- Log 10 (CFU + 1) Survivors [1, 21]: 0.0
- Log Reduction [1, 21]: 6.2
- Total Viability (CFU) [1, 21]: 0 CFU
- microbicidal activity (kill of inoculum) ([1]; highest concentration of hydrogen peroxide used in the binary system, tested alone): completely ineffective and produced no kill
- microbicidal activity (kill of inoculum) ([1]; hydrogen peroxide 88 mM, within 30 minutes): no microbicidal activity; also recorded: not microbicidal
- microbicidal activity (kill of inoculum) ([1]; hydrogen peroxide 8821 and 2940 mM, within 5 minutes, 6.2 log10 CFU inoculum): complete kill
- microbicidal activity (kill of inoculum) ([1]; hydrogen peroxide intermediate concentrations): partial kill
- Log 10 (CFU + 1) Survivors [2, 22]: 6.1
- Log Reduction [2, 22]: −0.1
- Total Viability (CFU) [2, 22]: 1358000 CFU
- Log 10 (CFU + 1) Survivors [2, 23]: 6.3
- Log Reduction [2, 23]: 0.0
- Total Viability (CFU) [2, 23]: 1974000 CFU
- Log 10 (CFU + 1) Survivors [2, 24]: 6.2
- Log Reduction [2, 24]: 0.1
- Total Viability (CFU) [2, 24]: 1484000 CFU
- Log 10 (CFU + 1) Survivors [2, 25]: 5.3
- Log Reduction [2, 25]: 1.0
- Total Viability (CFU) [2, 25]: 200200 CFU
- Log 10 (CFU + 1) Survivors [2, 26]: 2.8
- Log Reduction [2, 26]: 3.5
- Total Viability (CFU) [2, 26]: 588 CFU
- Log 10 (CFU + 1) Survivors [2, 27]: 0.0
- Log Reduction [2, 27]: 6.3
- Total Viability (CFU) [2, 27]: 0 CFU
- microbicidal activity (kill of inoculum) ([2]; hydrogen peroxide 8821 mM, within 60 minutes, 6.3 log10 CFU inoculum): complete kill
- microbicidal activity (kill of inoculum) ([2]; hydrogen peroxide 294 to 88 mM, within 60 minutes): no microbicidal activity
- microbicidal activity (kill of inoculum) ([2]; hydrogen peroxide 2940 and 882 mM, 60 minutes): partial kill
- Log 10 (CFU + 1) Survivors [3]: 5.8
- Log Reduction [3]: 0.4
- Total Viability (CFU) [3]: 588000 CFU

Molecule: OO [H2O2/H+, hydrogen peroxide]
- Log 10 (CFU + 1) Survivors [1, 28]: 6.2
- Log Reduction [1, 28]: 0.2
- Total Viability (CFU) [1, 28]: 1708000 CFU
- Log 10 (CFU + 1) Survivors [2, 29]: 6.2
- Log Reduction [2, 29]: −0.2
- Total Viability (CFU) [2, 29]: 1624000 CFU

Molecule: CC(C)O [IPA, Isopropyl Alcohol]
- Log 10 (CFU + 1) Survivors [4, 30]: 6.4
- Log Reduction [4, 30]: −0.1
- Total Viability (CFU) [4, 30]: 2422000 CFU
- Log 10 (CFU + 1) Survivors [4, 31]: 6.3
- Log Reduction [4, 31]: −0.1
- Total Viability (CFU) [4, 31]: 2170000 CFU
- Log 10 (CFU + 1) Survivors [4, 32]: 6.4
- Log Reduction [4, 32]: −0.1
- Total Viability (CFU) [4, 32]: 2352000 CFU
- Log 10 (CFU + 1) Survivors [4, 33]: 6.3
- Log Reduction [4, 33]: 0.0
- Total Viability (CFU) [4, 33]: 2044000 CFU
- activity against B. subtilis spores ([4]; any concentration tested, 60 min): did not demonstrate activity
- Log 10 (CFU + 1) Survivors ([5]; IPA 0.07% 15 min): 6.3
- Log Reduction ([5]; IPA 0.07% 15 min): −0.1
- Total Viability (CFU) ([5]; IPA 0.07% 15 min): 1932000 CFU
- Log 10 (CFU + 1) Survivors ([5]; IPA 0.70% 15 min): 6.3
- Log Reduction ([5]; IPA 0.70% 15 min): −0.1
- Total Viability (CFU) ([5]; IPA 0.70% 15 min): 1988000 CFU
- Log 10 (CFU + 1) Survivors ([5]; IPA 7% 15 min): 6.3
- Log Reduction ([5]; IPA 7% 15 min): −0.1
- Total Viability (CFU) ([5]; IPA 7% 15 min): 1834000 CFU
- Log 10 (CFU + 1) Survivors ([5]; IPA 70% 15 min): 0.0
- Log Reduction ([5]; IPA 70% 15 min): 6.2
- Total Viability (CFU) ([5]; IPA 70% 15 min): 0 CFU

Molecule: Povidone Iodine [PVI]
- Log 10 (CFU + 1) Survivors [4, 34]: 5.3
- Log Reduction [4, 34]: 0.8
- Total Viability (CFU) [4, 34]: 189000 CFU
- Log 10 (CFU + 1) Survivors ([5]; PVI 10.00% 15 min): 0.0
- Log Reduction ([5]; PVI 10.00% 15 min): 6.2
- Total Viability (CFU) ([5]; PVI 10.00% 15 min): 0 CFU
